In ChEMBL document CHEMBL2203282, “1,4-naphthoquinone cations as antiplasmodial agents: hydroxy-, acyloxy-, and alkoxy-substituted analogues” (ACS Med Chem Lett, 2012):

Tested on: Plasmodium falciparum
Test: Antiplasmodial activity against chloroquine-resistant Plasmodium falciparum W2 infected in human erythrocytes assessed as reduction in parasitemia after 48 hrs by flow cytometry analysis
Type: functional, organism-based
Conditions: W2, 48 h

`CCCCCCCCCCC1=C(C)C(=O)c2ccccc2C1=O` was tested. Which IC50 did it give?
Its IC50 is over 10000 nM.

For `CC(=O)OC1=C(CCCCC[P+](c2ccccc2)(c2ccccc2)c2ccccc2)C(=O)c2ccccc2C1=O`, which IC50 is on record?
Its IC50 is 1900 nM.

Which IC50 does the source give for `CCCCCCCCCCC1=C(OC(C)=O)C(=O)c2ccccc2C1=O` here?
The IC50 was 392 nM.

How did the IC50 turn out when `CCCCCCCCCCC1=C(O)C(=O)c2ccccc2C1=O` was run?
The IC50 was 339 nM.

How did the IC50 turn out when `CC1=C(OC(=O)CCC[P+](c2ccccc2)(c2ccccc2)c2ccccc2)C(=O)c2ccccc2C1=O` was run?
Its IC50 is 4600 nM.

For `CC1=C(OC(=O)CCCCCCCCCC[P+](c2ccccc2)(c2ccccc2)c2ccccc2)C(=O)c2ccccc2C1=O`, which IC50 is on record?
The IC50 was 1380 nM.

`CC1=C(OCC(=O)OCCC[P+](c2ccccc2)(c2ccccc2)c2ccccc2)C(=O)c2ccccc2C1=O` was tested. Which IC50 did it give?
Its IC50 is 1230 nM.

With `CC1=C(OCCCCCCCCCC[P+](c2ccccc2)(c2ccccc2)c2ccccc2)C(=O)c2ccccc2C1=O` as the compound, how does the IC50 read?
The IC50 was 119 nM.

Which IC50 does the source give for `CC1=C(OCCCCCC[P+](c2ccccc2)(c2ccccc2)c2ccccc2)C(=O)c2ccccc2C1=O` here?
The IC50 was 42.7 nM.

With `CC1=C(OCCC[P+](c2ccccc2)(c2ccccc2)c2ccccc2)C(=O)c2ccccc2C1=O` as the compound, how does the IC50 read?
The IC50 was 41.9 nM.

`O=C1C=C(OCCC[P+](c2ccccc2)(c2ccccc2)c2ccccc2)C(=O)c2ccccc21` was tested. Which IC50 did it give?
Its IC50 is 40 nM.

With `O=C1C=C(OCCCCCC[P+](c2ccccc2)(c2ccccc2)c2ccccc2)C(=O)c2ccccc21` as the compound, how does the IC50 read?
The IC50 was 28.5 nM.

`O=C1C(Cc2ccc(Cl)cc2)=C(OCCCCCC[P+](c2ccccc2)(c2ccccc2)c2ccccc2)C(=O)c2ccccc21` was tested. Which IC50 did it give?
Its IC50 is 49.5 nM.

`O=C1C(Cc2ccccc2)=C(OCCCCCC[P+](c2ccccc2)(c2ccccc2)c2ccccc2)C(=O)c2ccccc21` was tested. Which IC50 did it give?
The IC50 was 49.1 nM.

How did the IC50 turn out when `O=C1C(OCCCCCC[P+](c2ccccc2)(c2ccccc2)c2ccccc2)=C(C2CCCCC2)C(=O)c2ccccc21` was run?
Its IC50 is 47.9 nM.

With `O=C1C(Cc2ccccc2)=C(OCCC[P+](c2ccccc2)(c2ccccc2)c2ccccc2)C(=O)c2ccccc21` as the compound, how does the IC50 read?
The IC50 was 46.7 nM.

With `O=C1C(OCCC[P+](c2ccccc2)(c2ccccc2)c2ccccc2)=C(C2CCCCC2)C(=O)c2ccccc21` as the compound, how does the IC50 read?
The IC50 was 42.3 nM.

With `COc1ccc(C2=C(OCCC[P+](c3ccccc3)(c3ccccc3)c3ccccc3)C(=O)c3ccccc3C2=O)cc1` as the compound, how does the IC50 read?
Its IC50 is 17.4 nM.

With `CC1=C(OCCC[n+]2ccccc2)C(=O)c2ccccc2C1=O` as the compound, how does the IC50 read?
The IC50 was 167 nM.

How did the IC50 turn out when `CC1=C(OCCC[n+]2ccn(C)c2)C(=O)c2ccccc2C1=O` was run?
The IC50 was 165 nM.

How did the IC50 turn out when `CC(=O)OC1=C(c2ccc(OCCCCCCCCCC[P+](c3ccccc3)(c3ccccc3)c3ccccc3)cc2)C(=O)c2ccccc2C1=O` was run?
Its IC50 is 7120 nM.

`O=C1C(O)=C(c2ccc(OCCC[P+](c3ccccc3)(c3ccccc3)c3ccccc3)cc2)C(=O)c2ccccc21` was tested. Which IC50 did it give?
The IC50 was 6730 nM.

With `O=C1C(O)=C(c2ccc(OCCCCCCCCCC[P+](c3ccccc3)(c3ccccc3)c3ccccc3)cc2)C(=O)c2ccccc21` as the compound, how does the IC50 read?
Its IC50 is 6640 nM.

How did the IC50 turn out when `CC(=O)OC1=C(c2ccc(OCCCC[P+](c3ccccc3)(c3ccccc3)c3ccccc3)cc2)C(=O)c2ccccc2C1=O` was run?
The IC50 was 5440 nM.

`O=C1C(O)=C(CCCCC[P+](c2ccccc2)(c2ccccc2)c2ccccc2)C(=O)c2ccccc21` was tested. Which IC50 did it give?
Its IC50 is 4080 nM.

With `CCCC[P+](CCCC)(CCCC)CCCCCCCCCCC1=C(O)C(=O)c2ccccc2C1=O` as the compound, how does the IC50 read?
The IC50 was 3860 nM.

How did the IC50 turn out when `CC(=O)OC1=C(CCCCCCCCCC[P+](c2ccccc2)(c2ccccc2)c2ccccc2)C(=O)c2ccccc2C1=O` was run?
Its IC50 is 3590 nM.

For `O=C1C(O)=C(CCCCCCCCCC[P+](Cc2ccccc2)(Cc2ccccc2)Cc2ccccc2)C(=O)c2ccccc21`, which IC50 is on record?
Its IC50 is 3280 nM.

`O=C1C(O)=C(CCCCCCCCCC[P+](c2ccccc2)(c2ccccc2)c2ccccc2)C(=O)c2ccccc21` was tested. Which IC50 did it give?
Its IC50 is 2180 nM.

For `C[C@@H]1CC[C@H]2[C@@H](C)C(=O)O[C@@H]3O[C@@]4(C)CC[C@@H]1[C@]32OO4` [ARTEMISININ], which IC50 is on record?
The IC50 was 18.1 nM.

Which IC50 does the source give for `O=C1C(O)=C([C@H]2CC[C@H](c3ccc(Cl)cc3)CC2)C(=O)c2ccccc21` [ATOVAQUONE] here?
The IC50 was 0.5 nM.
